# Where two headings read alike, the source gives them in different places.
# Biological target: T1, EP3 receptor (Homo sapiens, UniProt P43115)
# T1 construct: purchased Millipore HTS092M
# T1 sequence (P43115 1-390): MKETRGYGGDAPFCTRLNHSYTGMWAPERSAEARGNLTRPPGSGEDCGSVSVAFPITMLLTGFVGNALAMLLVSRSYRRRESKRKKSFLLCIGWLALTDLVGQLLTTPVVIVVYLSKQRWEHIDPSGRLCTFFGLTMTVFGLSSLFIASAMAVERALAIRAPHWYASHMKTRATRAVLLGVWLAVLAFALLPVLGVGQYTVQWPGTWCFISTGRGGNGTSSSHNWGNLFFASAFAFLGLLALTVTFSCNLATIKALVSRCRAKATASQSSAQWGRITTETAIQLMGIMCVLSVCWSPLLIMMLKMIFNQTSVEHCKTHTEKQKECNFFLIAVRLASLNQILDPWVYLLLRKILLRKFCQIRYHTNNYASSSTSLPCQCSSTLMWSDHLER
# Assay: [3H]-PGE2 binding assay (EP3 competition binding)
# Method: EP3 competition binding was determined using the following materials and experimental conditions:
# Beads=Perkin Elmer RPNQ0001
# EP3 membrane=Millipore HTS092M
# Membrane concentration=2 μg/well
# Beads concentration=0.25 mg/well
# [3H]-PGE2=2 nM; DMSO—0.1%
# Binding buffer=50 mM Tris, 10 mM MgCl2, 1 mM • EDTA, PH 7.4.
# The binding buffer was removed from refrigeration (@ 4° C.) and allowed to warm to room temperature. Test compound (@ stock concentration of […] in DMSO) was serial dilutes (1:3) with 100% DMSO using Echo plate. Diluted test compound (30 nL) was dispensed to the 384-well assay plate (using Echo 550 Labcyte System). To each well was then added assay buffer (5 μl) and each well was spun. Beads were weighed out, dissolved in assay buffer to a concentration of 0.25 mg/15 μl. Original membrane was diluted with assay buffer to a concentration of 2 μg/5 μl. […] To each test well were then added diluted [3H]-PGE2 (5 μl), diluted membrane (5 μl), and dissolved beads (15 μl). The plate was equilibrated at room temperature on a plate shaker for 2 hours and then read with a TOPCOUNT scintillation plate reader. Results were analyzed using a Prism program with non-linear regression, one-site fit for Ki.
Ki (read-out: [3H]-PGE2 Binding Ki),Structure (SMILES),Ki ([3H]-PGE2 Binding Ki)
25 nM,"CCn1ncc2c(F)cc(-c3[nH]c(=O)c(C(/C=C4\CCNC4=O)(CC)CC)cc3F)cc21 [compound 47, (E)-6-(1-ethyl-4-fluoro-1H-indazol-6-yl)-5-fluoro-3-(3-((2-oxopyrrolidin-3-ylidene)methyl)pentan-3-yl)pyridin-2(1H)-one]",–
228 nM,"CCC(/C=C1\OC(=O)NC1=O)(CC)c1ccc(-c2ccc3cccc(C(F)(F)F)c3c2)[nH]c1=O [compound 23, 5-(2-ethyl-2-(2-oxo-6-(8-(trifluoromethyl)naphthalen-2-yl)-1,2-dihydropyridin-3-yl)butylidene)oxazolidine-2,4-dione]",–
195 nM,"CCn1ncc2c(F)cc(-c3[nH]c(=O)c(C(CC)(CC)c4nnc[nH]4)cc3F)cc21 [compound 36, 3-(3-(4H-1,2,4-triazol-3-yl)pentan-3-yl)-6-(1-ethyl-4-fluoro-1H-indazol-6-yl)-5-fluoropyridin-2(1H)-one]",–
2 nM,"CCn1ncc2c(F)cc(-c3ccc(C(CC)(CC)Cc4ncco4)c(=O)[nH]3)cc21 [Compound #41, 6-(1-ethyl-4-fluoro-1H-indazol-6-yl)-3-(3-(oxazol-2-ylmethyl)pentan-3-yl)pyridin-2(1H)-one]",–
787 nM,"CCn1ncc2c(F)cc(-c3ccc(C(CC4CCNC4=O)C(C)C)c(=O)[nH]3)cc21 (stereo not drawn) [compound 148, anti-6-(1-ethyl-4-fluoro-1H-indazol-6-yl)-3-(3-methyl-1-(2-oxopyrrolidin-3-yl)butan-2-yl)pyridin-2(1H)-one]",–
12 nM,"CCn1ncc2c(F)cc(-c3ccc(C4CCC5(CC4)CCN(S(=O)(=O)C(C)C)CC5)c(=O)[nH]3)cc21 [compound 204, 6-(1-ethyl-4-fluoroindazol-6-yl)-3-[3-(propane-2-sulfonyl)-3-azaspiro[5.5]undecan-9-yl]-1H-pyridin-2-one]",–
25 nM,"CCn1ncc2c(F)cc(-c3ccc(C(C(C)C)n4cnnc4)c(=O)[nH]3)cc21 (stereo not drawn) [Compound #172, 6-(1-ethyl-4-fluoro-1H-indazol-6-yl)-3-(2-methyl-1-(4H-1,2,4-triazol-4-yl)propyl)pyridin-2(1H)-one]",–
121 nM,"CC(C)C(/C=C1\OC(=O)NC1=O)c1ccc(-c2ccc3cccc(C#N)c3c2)[nH]c1=O (mixture of isomers) [compound 142, (Z)-7-(5-(1-(2,4-dioxooxazolidin-5-ylidene)-3-methylbutan-2-yl)-6-oxo-1,6-dihydropyridin-2-yl)-1-naphthonitrile]",–
19 nM,"CCn1ncc2c(F)cc(-c3ccc(C(CC)(CC)c4nnc(N)s4)c(=O)[nH]3)cc21 [Compound #52, 3-(3-(5-amino-1,3,4-thiadiazol-2-yl)pentan-3-yl)-6-(1-ethyl-4-fluoro-1H-indazol-6-yl)pyridin-2(1H)-one]",–
6 nM,"CCn1ncc2c(F)cc(-c3ccc(C(CC)(CC)c4nnc(C)o4)c(=O)[nH]3)cc21 [Compound #271, 6-(1-ethyl-4-fluoro-1H-indazol-6-yl)-3-(3-(5-methyl-1,3,4-oxadiazol-2-yl)pentan-3-yl)pyridin-2(1H)-one]",–
51 nM,"CCn1ncc2c(F)cc(-c3ccc(C4CC5CN(S(=O)(=O)C(C)C)CC5C4)c(=O)[nH]3)cc21 (stereo not drawn) [compound 205, 6-(1-ethyl-4-fluoro-1H-indazol-6-yl)-3-(2-(isopropylsulfonyl)-octahydrocyclopenta[c]pyrrol-5-yl)pyridin-2(1H)-one]",–
24 nM,"CCn1ncc2c(F)cc(-c3[nH]c(=O)c(C(CC)(CC)c4ncco4)cc3F)cc21 [Compound #37, 6-(1-ethyl-4-fluoro-1H-indazol-6-yl)-5-fluoro-3-(3-(oxazol-2-yl)pentan-3-yl)pyridin-2(1H)-one]",–
29 nM,"CCn1ncc2c(F)cc(-c3ccc(C(C(C)C)n4cnnn4)c(=O)[nH]3)cc21 (stereo not drawn) [Compound #171, 6-(1-ethyl-4-fluoro-1H-indazol-6-yl)-3-(2-methyl-1-(1H-tetrazol-1-yl)propyl)pyridin-2(1H)-one]",–
15 nM,"CCn1ncc2c(F)cc(-c3ccc(C4CCC5(CCNC5=O)CC4)c(=O)[nH]3)cc21 (stereo not drawn) [compound 207, 8-(6-(1-ethyl-4-fluoro-1H-indazol-6-yl)-2-oxo-1,2-dihydropyridin-3-yl)-2-azaspiro[4.5]decan-1-one]",–
735 nM,"CCC(CC)(c1nnc[nH]1)c1ccc(-c2ccc3c(F)cc(F)cc3c2)[nH]c1=O [compound 33, 3-(3-(4H-1,2,4-triazol-3-yl)pentan-3-yl)-6-(5,7-difluoronaphthalen-2-yl)pyridin-2(1H)-one]",–
29 nM,CCn1ncc2c(F)cc(-c3ccc([C@@]45CCC[C@@H](C4)C(=O)O5)c(=O)[nH]3)cc21 (racemic) [compound 299],–
2060 nM,"CCn1ncc2c(F)cc(-c3ccc(C(CC)(CC)c4nnc(N)o4)c(=O)[nH]3)cc21 [Compound #51, 3-(3-(5-amino-1,3,4-oxadiazol-2-yl)pentan-3-yl)-6-(1-ethyl-4-fluoro-1H-indazol-6-yl)pyridin-2(1H)-one]",–
165 nM,"CCn1ncc2c(F)cc(-c3ccc(C4CC5COC(=O)N5C4)c(=O)[nH]3)cc21 (stereo not drawn) [compound 215, 6-(6-(1-ethyl-4-fluoro-1H-indazol-6-yl)-2-oxo-1,2-dihydropyridin-3-yl)tetrahydro-1H,3H-pyrrolo[1,2-c]oxazol-3-one]",–
13 nM,"CCn1ncc2c(F)cc(-c3ccc(C(CC)(CC)c4nnc(C(C)C)o4)c(=O)[nH]3)cc21 [Compound #38, 6-(1-ethyl-4-fluoro-1H-indazol-6-yl)-3-(3-(5-isopropyl-1,3,4-oxadiazol-2-yl)pentan-3-yl)pyridin-2(1H)-one]",–
85 nM,"CC(C)c1cccc2ccc(-c3ccc(C(/C=C4\OC(=O)NC4=O)C(C)C)c(=O)[nH]3)cc12 (stereo not drawn) [compound 135, (Z)-5-(2-(6-(8-isopropylnaphthalen-2-yl)-2-oxo-1,2-dihydropyridin-3-yl)-3-methylbutylidene)oxazolidine-2,4-dione]",–
14 nM,"CCN1CCOc2c(F)cc(-c3ccc(C(CC)(CC)CC4CCNC4=O)c(=O)[nH]3)cc21 (stereo not drawn) [compound 17, 6-(4-ethyl-8-fluoro-3,4-dihydro-2H-benzo[b][1,4]oxazin-6-yl)-3-(3-((2-oxopyrrolidin-3-yl)methyl)pentan-3-yl)pyridin-2(1H)-one]",–
632 nM,"CCn1ncc2c(F)cc(-c3ccc(C(CC4CCNC4=O)C(C)C)c(=O)[nH]3)cc21 (stereo not drawn) [compound 147, Syn-6-(1-ethyl-4-fluoro-1H-indazol-6-yl)-3-(3-methyl-1-(2-oxopyrrolidin-3-yl)butan-2-yl)pyridin-2(1H)-one]",–
28 nM,"CCC(/C=C1/OC(=O)NC1=O)(CC)c1ccc(-c2ccc3c(F)cc(F)cc3c2)[nH]c1=O [compound 10, (E)-5-(2-(6-(5,7-difluoronaphthalen-2-yl)-2-oxo-1,2-dihydropyridin-3-yl)-2-ethylbutylidene)oxazolidine-2,4-dione]",–
60 nM,"CCC(CC)(Cc1nnc[nH]1)c1ccc(-c2ccc3cc(F)cc(F)c3c2)[nH]c1=O [compound 279, 3-(3-((4H-1,2,4-triazol-3-yl)methyl)pentan-3-yl)-6-(6,8-difluoronaphthalen-2-yl)pyridin-2(3H)-one]",–
20 nM,"CCn1ncc2c(F)cc(-c3ccc(C4CC5CN(C(=O)NC(C)C)CC5C4)c(=O)[nH]3)cc21 (stereo not drawn) [compound 209, 5-(6-(1-ethyl-4-fluoro-1H-indazol-6-yl)-2-oxo-1,2-dihydropyridin-3-yl)-N-isopropyl-hexahydrocyclopenta[c]pyrrole-2(1H)-carboxamide]",–
10 nM,"CCn1ncc2c(F)cc(-c3ccc(C4(C(C)C)OCCNC4=O)c(=O)[nH]3)cc21 (stereo not drawn) [compound 248, 2-(6-(1-ethyl-4-fluoro-1H-indazol-6-yl)-2-oxo-1,2-dihydropyridin-3-yl)-2-isopropylmorpholin-3-one]",–
11 nM,"CCn1ncc2c(F)cc(-c3ccc(C(CC)(CC)Cc4ncc[nH]4)c(=O)[nH]3)cc21 [compound 20, 3-(3-((1H-imidazol-2-yl)methyl)pentan-3-yl)-6-(1-ethyl-4-fluoro-1H-indazol-6-yl)pyridin-2(1H)-one]",–
6 nM,"CCn1ncc2c(F)cc(-c3ccc(C(CC4(C)CCNC4=O)C(C)C)c(=O)[nH]3)cc21 (stereo not drawn) [compound 146, 6-(1-ethyl-4-fluoro-1H-indazol-6-yl)-3-(3-methyl-1-(3-methyl-2-oxopyrrolidin-3-yl)butan-2-yl)pyridin-2(1H)-one]",–
7 nM,"CCn1ncc2c(F)cc(-c3ccc(C(CC)(CC)Cc4nnc[nH]4)c(=O)[nH]3)cc21 [compound 15, 3-(3-((4H-1,2,4-triazol-3-yl)methyl)pentan-3-yl)-6-(1-ethyl-4-fluoro-1H-indazol-6-yl)pyridin-2(1H)-one]",–
–,"CCn1ncc2c(F)cc(-c3ccc(C4CC5CCC(C4)N5S(=O)(=O)C(C)C)c(=O)[nH]3)cc21 (stereo not drawn) [compound 206, 6-(1-ethyl-4-fluoro-1H-indazol-6-yl)-3-(8-(isopropylsulfonyl)-8-azabicyclo[3.2.1]octan-3-yl)pyridin-2(1H)-one]",25 nM

# Source: patent US10336701B2, “Pyridin-2-one derivatives of formula (II) useful as EP3 receptor antagonists” (Janssen Pharmaceutica NV, priority 2017, dated 2019)
